Laboratory results taken from patent US8293781B2, “Indole derivatives having cPLA2 inhibiting activity and applications and production methods of the same” (Daiichi Sankyo Company, Limited, priority 2007, dated 2012).
Where a name gives a salt, the structure may show the parent alone.

How the values were obtained:
[1] = tested on: guinea pig antigen induced bronchial asthma model; assay: Guinea pig antigen induced bronchial asthma model: airway hyperreactivity to acetyl choline; format: in vivo; settings: 22 to 24 hours after inducement
Procedure: (§1) Hartley male guinea pigs (Kyudo Co., Ltd.) were sensitized by inhaling the aerosolized 1% OVA-containing physiological saline solution for consecutive 8 days. One week after the final sensitization, antigen antibody reaction was elicited by inhaling the aerosolized 2% OVA-containing physiological saline solution. 24 hours and 1 hour before antigen challenge, metyrapone (10 mg/kg, 1.0 ml/kg) was injected to the hind limb peripheral vein. 30 minutes before antigen challenge, pyrilamine maleate (10 mg/kg, 1.0 ml/kg) was administered intraperitoneally. The test compound (5 mg/kg and 20 mg/kg, 5.0 ml/kg) was administered once a day from the day after the final sensitization to the day before challenge. On the day of challenge, it was administered orally 1 hour before challenge and 8 hours after challenge. Note that the number of mice used in the test was made eight per group.
The airway hyperreactivity was measured 22 to 24 hours after inducement. Physiological saline solution and acetyl choline in 0.0625, 0.125, 0.25, 0.5, 1, and 2 mg/ml amounts in physiological saline solutions were successively nebulized and made to be inhaled by guinea pigs 1 minute at a time each, then the sRaw was measured by a total respiratory function analysis system (Pulmos-I, made by M.I.P.S.) The results of evaluation of typical compounds are shown in Table 9 for different acetyl choline concentrations (PC100Ach, mg/ml) inducing 100% airway resistance.

[2] = tested on: guinea pig antigen induced bronchial asthma model; assay: Guinea pig antigen induced bronchial asthma model: airway resistance (IAR, LAR); format: in vivo; settings: for IAR suppression rate (airway resistance): immediate asthmatic response, 1 minute after challenge; for LAR suppression rate (airway resistance): late asthmatic response, AUC 4 to 8 hours
Procedure: as §1
The airway resistance (sRaw) was measured using a total respiratory function analysis system (Pulmos-I, made by M.I.P.S.) before antigen challenge, 1 minute after finishing the antigen challenge, and 2, 4, 5, 6, 7, 8, and 22 to 24 hours after antigen challenge. […] The late asthmatic response (LAR) was evaluated by calculating the AUC from the rate of change 4 to 8 hours after inducement based on the measurement values and finding the value obtained by subtratcting the AUC of each compound administered group from the AUC of the vehicle administered group with the control inhibition rate as a percent (%) with respect to the value of the vehicle administered group. The rates of suppression of typical compounds with respect to the increases in airway resistances in immediate asthmatic response (IAR) and late asthmatic response (LAR) are shown in Table 8.

[3] = tested on: guinea pig antigen induced bronchial asthma model; assay: Guinea pig antigen induced bronchial asthma model: infiltrating cells in BALF; format: in vivo
Procedure: as §1
The number of cells in a bronchial alveolar lavage fluid was counted after measurement of the airway hyperreactivity. Each guinea pig was exsanguinated under anesthesia, its chest was opened, a cannular was inserted into the trachea, then physiological saline was injected into and sucked out from the lungs to recover the bronchial alveolar lavage fluid (BALF). The BALF was centrifugally separated, the obtained precipitate (pellets) was suspended in physiological saline and the total number of cells per 1 μl was calculated by an automatic blood cell counting system (Sysmex F-820). The total number of cells was calculated, then the sample was again centrifugally separated and the obtained pellets were hemolyzed, diluted, centrifuged, and dried, then stained by May-Greenwald's-Giemsa dye. Using a microscope, the ratios of the macrophages, eosinophil granulocytes, neutrophils, and lymphocytes to the total blood cell count (total number of cells) were found and the ratios used to calculate the numbers of cells per μl. The inhibiting rate was found as a percent (%) of the value of the number of cells of the control vehicle administered group minus the number of cells of each compound administered group with respect to the value of the number of cells of the vehicle administered group minus the number of cells of the negative control saline inhalation group.

rats = assay: Repeated oral administration to rats once a day over two weeks (toxicity); format: in vivo, rat; settings: once a day over two weeks repeatedly orally
Procedure: Further, the present invention compound (I) or its salts or their solvates have low toxicity. In experiments administering the compound of Example 231 of the present invention to rats once a day over two weeks repeatedly orally, the nontoxic amount was 180 mg/kg/day.

| SMILES | PC100ACh (acetyl choline concentration inducing 100% airway resistance) ([1]; 5 mg/kg oral) | PC100ACh (acetyl choline concentration inducing 100% airway resistance) ([1]; 20 mg/kg oral) | IAR suppression rate (airway resistance) ([2]; 5 mg/kg oral) | LAR suppression rate (airway resistance) ([2]; 5 mg/kg oral) | IAR suppression rate (airway resistance) ([2]; 20 mg/kg oral) | LAR suppression rate (airway resistance) ([2]; 20 mg/kg oral) | Inhibitory rate of infiltrating cells in BALF: Eosinophils ([3]; 5 mg/kg oral) | Inhibitory rate of infiltrating cells in BALF: Lymphocytes ([3]; 5 mg/kg oral) | Inhibitory rate of infiltrating cells in BALF: Macrophages ([3]; 5 mg/kg oral) | Inhibitory rate of infiltrating cells in BALF: Neutrophils ([3]; 5 mg/kg oral) | Inhibitory rate of infiltrating cells in BALF: Total number of cells ([3]; 5 mg/kg oral) | Inhibitory rate of infiltrating cells in BALF: Eosinophils ([3]; 20 mg/kg oral) | Inhibitory rate of infiltrating cells in BALF: Lymphocytes ([3]; 20 mg/kg oral) | Inhibitory rate of infiltrating cells in BALF: Macrophages ([3]; 20 mg/kg oral) | Inhibitory rate of infiltrating cells in BALF: Neutrophils ([3]; 20 mg/kg oral) | Inhibitory rate of infiltrating cells in BALF: Total number of cells ([3]; 20 mg/kg oral) | nontoxic amount (rats) |
| --- | --- | --- | --- | --- | --- | --- | --- | --- | --- | --- | --- | --- | --- | --- | --- | --- | --- |
| O=C(O)CCc1ccc2c(c1)c(CCc1ccccc1)cn2-c1ccc(OC(F)F)cc1 [Example 190, 3-{1-[4-(difluoromethoxy)phenyl]-3-(2-phenylethyl)-1H-indol-5-yl}propanoic acid 2-amino-2-(hydroxymethyl)propane-1,3-diol salt (1:1)] | 0.57 mg/mL | 0.50 mg/mL | 2% | 46% | 2% | 42% | 41% | 30% | 66% | 0% | 33% | 76% | 42% | 76% | 37% | 62% |  |
| O=C(O)CCc1ccc2c(c1)c(CCc1ccccc1)cn2-c1ccc(OCCO)cc1 [Example 229, 3-{1-[4-(2-hydroxyethoxy)phenyl]-3-(2-phenylethyl)-1H-indol-5-yl}propanoic acid 2-amino-2-(hydroxymethyl)propane-1,3-diol salt (1:1)] | 0.47 mg/mL | 0.74 mg/mL | 15% | 22% | 33% | 37% | 51% | 11% | 58% | 0% | 30% | 46% | 12% | 46% | 16% | 35% |  |
| O=C(O)CCc1ccc2c(c1)c(CCc1ccccc1)cn2-c1ccc(Oc2ccccc2)cc1 [Example 231, 3-[1-(4-phenoxyphenyl)-3-(2-phenylethyl)-1H-indol-5-yl]propanoic acid 2-amino-2-(hydroxymethyl)propane-1,3-diol salt (1:1)] | 1.02 mg/mL | 1.09 mg/mL | 21% | 45% | 59% | 78% | 58% | 45% | 80% | 38% | 58% | 69% | 55% | 85% | 64% | 72% | 180 mg/kg/day |
